{"source": "patent US20230085307A1", "about": "“PYRIDAZINONE COMPOUND AND HERBICIDE” (NISSAN CHEMICAL CORPORATION, priority 2019, published 2023)", "key": {"[1]": {"tested_on": "barnyard grass", "experiment": "Test Example 3: herbicidal effect by foliage application, Wagner pot (Table 18, symbol H)", "type": "in vivo, barnyard grass (Echinochloa crus-galli)", "conditions": "283 g/ha", "outline": "(§1)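 Plants were sown in alluvial soil held under 0.1–0.5 cm standing water and grown 14 days in a greenhouse at 25–30 °C. An emulsifiable formulation, water-diluted to the set dose, was then sprayed onto the foliage, and effects were scored three weeks later using previously defined criteria.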"}, "[2]": {"tested_on": "Chinese sprangletop", "experiment": "Test Example 3: herbicidal effect by foliage application, Wagner pot (Table 18, symbol D)", "type": "in vivo, chinese sprangletop (Leptochloa chinensis)", "conditions": "283 g/ha", "outline": "as §1"}, "[3]": {"tested_on": "rice flat sedge", "experiment": "Test Example 3: herbicidal effect by foliage application, Wagner pot (Table 18, symbol E)", "type": "in vivo, rice flat sedge (Cyperus iria)", "conditions": "283 g/ha", "outline": "as §1"}, "[4]": {"tested_on": "southern crabgrass", "experiment": "Test Example 4: herbicidal effect by soil treatment (Table 19, symbol F)", "type": "in vivo, southern crabgrass (Digitaria ciliaris)", "conditions": "283 g/ha", "outline": "(§2)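 Soil-surface application: an emulsion agent diluted with water to the predetermined dose is sprayed uniformly over seeds lying under roughly 1.5 cm of sterilized diluvial soil. Boxes stay in a greenhouse at 25° C. to 30° C. Three weeks later, each species is graded on previously defined criteria.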"}, "[5]": {"tested_on": "green foxtail", "experiment": "Test Example 4: herbicidal effect by soil treatment (Table 19, symbol G)", "type": "in vivo, green foxtail (Setaria viridis)", "conditions": "283 g/ha", "outline": "as §2"}, "[6]": {"tested_on": "barnyard grass", "experiment": "Test Example 4: herbicidal effect by soil treatment (Table 19, symbol H)", "type": "in vivo, barnyard grass (Echinochloa crus-galli)", "conditions": "283 g/ha", "outline": "as §2"}, "[7]": {"tested_on": "wild oat", "experiment": "Test Example 4: herbicidal effect by soil treatment (Table 19, symbol I)", "type": "in vivo, wild oat (Avena fatua)", "conditions": "283 g/ha", "outline": "as §2"}, "[8]": {"tested_on": "blackgrass", "experiment": "Test Example 4: herbicidal effect by soil treatment (Table 19, symbol J)", "type": "in vivo, blackgrass (Alopecurus myosuroides)", "conditions": "283 g/ha", "outline": "as §2"}, "[9]": {"tested_on": "Italian ryegrass", "experiment": "Test Example 4: herbicidal effect by soil treatment (Table 19, symbol K)", "type": "in vivo, Italian ryegrass (Lolium multiflorum)", "conditions": "283 g/ha", "outline": "as §2"}, "[10]": {"tested_on": "windgrass", "experiment": "Test Example 4: herbicidal effect by soil treatment (Table 19, symbol L)", "type": "in vivo, windgrass (Apera spica-venti)", "conditions": "283 g/ha", "outline": "as §2"}, "[11]": {"tested_on": "velvetleaf", "experiment": "Test Example 4: herbicidal effect by soil treatment (Table 19, symbol M)", "type": "in vivo, velvetleaf (Abutilon theophrasti)", "conditions": "283 g/ha", "outline": "as §2"}, "[12]": {"tested_on": "redroot pigweed", "experiment": "Test Example 4: herbicidal effect by soil treatment (Table 19, symbol N)", "type": "in vivo, redroot pigweed (Amaranthus retroflexus)", "conditions": "283 g/ha", "outline": "as §2"}, "[13]": {"tested_on": "lambsquarters", "experiment": "Test Example 4: herbicidal effect by soil treatment (Table 19, symbol O)", "type": "in vivo, lambsquarters (Chenopodium album)", "conditions": "283 g/ha", "outline": "as §2"}, "[14]": {"tested_on": "chickweed", "experiment": "Test Example 4: herbicidal effect by soil treatment (Table 19, symbol P)", "type": "in vivo, common chickweed (Stellaria media)", "conditions": "283 g/ha", "outline": "as §2"}, "[15]": {"tested_on": "false cleavers", "experiment": "Test Example 4: herbicidal effect by soil treatment (Table 19, symbol Q)", "type": "in vivo, false cleavers (Galium spurium)", "conditions": "283 g/ha", "outline": "as §2"}, "[16]": {"tested_on": "persian speedwell", "experiment": "Test Example 4: herbicidal effect by soil treatment (Table 19, symbol R)", "type": "in vivo, Persian speedwell (Veronica persica)", "conditions": "283 g/ha", "outline": "as §2"}, "[17]": {"tested_on": "southern crabgrass", "experiment": "Test Example 5: herbicidal effect by foliage application, plastic box (Table 20, symbol F)", "type": "in vivo, southern crabgrass (Digitaria ciliaris)", "conditions": "foliage application, 283 g/ha, 3 weeks after application", "outline": "(§3)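 Sow seeds spot-wise in sterilized diluvial soil; cover with ~1.5 cm soil. Grow 14 days in greenhouse, 25° C. to 30° C. Spray foliage with emulsion diluted to predetermined amount. Rate effect after 3 weeks.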"}, "[18]": {"tested_on": "green foxtail", "experiment": "Test Example 5: herbicidal effect by foliage application, plastic box (Table 20, symbol G)", "type": "in vivo, green foxtail (Setaria viridis)", "conditions": "foliage application, 283 g/ha, 3 weeks after application", "outline": "as §3"}, "[19]": {"tested_on": "barnyard grass", "experiment": "Test Example 5: herbicidal effect by foliage application, plastic box (Table 20, symbol H)", "type": "in vivo, barnyard grass (Echinochloa crus-galli)", "conditions": "foliage application, 283 g/ha, 3 weeks after application", "outline": "as §3"}, "[20]": {"tested_on": "wild oat", "experiment": "Test Example 5: herbicidal effect by foliage application, plastic box (Table 20, symbol I)", "type": "in vivo, wild oat (Avena fatua)", "conditions": "foliage application, 283 g/ha, 3 weeks after application", "outline": "as §3"}, "[21]": {"tested_on": "blackgrass", "experiment": "Test Example 5: herbicidal effect by foliage application, plastic box (Table 20, symbol J)", "type": "in vivo, blackgrass (Alopecurus myosuroides)", "conditions": "foliage application, 283 g/ha, 3 weeks after application", "outline": "as §3"}, "[22]": {"tested_on": "Italian ryegrass", "experiment": "Test Example 5: herbicidal effect by foliage application, plastic box (Table 20, symbol K)", "type": "in vivo, Italian ryegrass (Lolium multiflorum)", "conditions": "foliage application, 283 g/ha, 3 weeks after application", "outline": "as §3"}, "[23]": {"tested_on": "windgrass", "experiment": "Test Example 5: herbicidal effect by foliage application, plastic box (Table 20, symbol L)", "type": "in vivo, windgrass (Apera spica-venti)", "conditions": "foliage application, 283 g/ha, 3 weeks after application", "outline": "as §3"}, "[24]": {"tested_on": "velvetleaf", "experiment": "Test Example 5: herbicidal effect by foliage application, plastic box (Table 20, symbol M)", "type": "in vivo, velvetleaf (Abutilon theophrasti)", "conditions": "foliage application, 283 g/ha, 3 weeks after application", "outline": "as §3"}, "[25]": {"tested_on": "lambsquarters", "experiment": "Test Example 5: herbicidal effect by foliage application, plastic box (Table 20, symbol O)", "type": "in vivo, lambsquarters (Chenopodium album)", "conditions": "foliage application, 283 g/ha, 3 weeks after application", "outline": "as §3"}, "[26]": {"tested_on": "false cleavers", "experiment": "Test Example 5: herbicidal effect by foliage application, plastic box (Table 20, symbol Q)", "type": "in vivo, false cleavers (Galium spurium)", "conditions": "foliage application, 283 g/ha, 3 weeks after application", "outline": "as §3"}, "[27]": {"tested_on": "persian speedwell", "experiment": "Test Example 5: herbicidal effect by foliage application, plastic box (Table 20, symbol R)", "type": "in vivo, Persian speedwell (Veronica persica)", "conditions": "foliage application, 283 g/ha, 3 weeks after application", "outline": "as §3"}}, "data": [{"smiles": "CCCC(=O)Oc1c(C)nn(C)c(=O)c1-c1c(-c2ccccc2OC)sc2ccc(F)cc12", "note": "[2-025]", "values": [{"measurement": "herbicidal effect on H (barnyard grass), rating 0-5", "setting": "[1]", "result": "4 (Herbicidal rate of 70% or more and less than 90%)"}, {"measurement": "herbicidal effect on D (Chinese sprangletop), rating 0-5", "setting": "[2]", "result": "0 (Herbicidal rate of 5% or less (almost no effect))"}, {"measurement": "herbicidal effect on E (rice flat sedge), rating 0-5", "setting": "[3]", "result": "4 (Herbicidal rate of 70% or more and less than 90%)"}, {"measurement": "herbicidal effect rating, F: southern crabgrass", "setting": "[4]", "result": "3 (Herbicidal rate of 40% or more and less than 70%)"}, {"measurement": "herbicidal effect rating, G: green foxtail", "setting": "[5]", "result": "4 (Herbicidal rate of 70% or more and less than 90%)"}, {"measurement": "herbicidal effect rating, H: barnyard grass", "setting": "[6]", "result": "3 (Herbicidal rate of 40% or more and less than 70%)"}, {"measurement": "herbicidal effect rating, I: wild oat", "setting": "[7]", "result": "3 (Herbicidal rate of 40% or more and less than 70%)"}, {"measurement": "herbicidal effect rating, J: blackgrass", "setting": "[8]", "result": "0 (Herbicidal rate of 5% or less (almost no effect))"}, {"measurement": "herbicidal effect rating, K: Italian ryegrass", "setting": "[9]", "result": "0 (Herbicidal rate of 5% or less (almost no effect))"}, {"measurement": "herbicidal effect rating, L: windgrass", "setting": "[10]", "result": "0 (Herbicidal rate of 5% or less (almost no effect))"}, {"measurement": "herbicidal effect rating, M: velvetleaf", "setting": "[11]", "result": "2 (Herbicidal rate of 20% or more and less than 40%)"}, {"measurement": "herbicidal effect rating, N: redroot pigweed", "setting": "[12]", "result": "3 (Herbicidal rate of 40% or more and less than 70%)"}, {"measurement": "herbicidal effect rating, O: lambsquarters", "setting": "[13]", "result": "4 (Herbicidal rate of 70% or more and less than 90%)"}, {"measurement": "herbicidal effect rating, P: chickweed", "setting": "[14]", "result": "4 (Herbicidal rate of 70% or more and less than 90%)"}, {"measurement": "herbicidal effect rating, Q: false cleavers", "setting": "[15]", "result": "4 (Herbicidal rate of 70% or more and less than 90%)"}, {"measurement": "herbicidal effect rating, R: persian speedwell", "setting": "[16]", "result": "3 (Herbicidal rate of 40% or more and less than 70%)"}, {"measurement": "effect on southern crabgrass (F)", "setting": "[17]", "result": "4 (Herbicidal rate of 70% or more and less than 90%)"}, {"measurement": "effect on green foxtail (G)", "setting": "[18]", "result": "4 (Herbicidal rate of 70% or more and less than 90%)"}, {"measurement": "effect on barnyard grass (H)", "setting": "[19]", "result": "3 (Herbicidal rate of 40% or more and less than 70%)"}, {"measurement": "effect on wild oat (I)", "setting": "[20]", "result": "3 (Herbicidal rate of 40% or more and less than 70%)"}, {"measurement": "effect on blackgrass (J)", "setting": "[21]", "result": "0 (Herbicidal rate of 5% or less (almost no effect))"}, {"measurement": "effect on Italian ryegrass (K)", "setting": "[22]", "result": "1 (Herbicidal rate of 5% or more and less than 20%)"}, {"measurement": "effect on windgrass (L)", "setting": "[23]", "result": "1 (Herbicidal rate of 5% or more and less than 20%)"}, {"measurement": "effect on velvetleaf (M)", "setting": "[24]", "result": "5 (Herbicidal rate of 90% or more (almost completely withered))"}, {"measurement": "effect on lambsquarters (O)", "setting": "[25]", "result": "3 (Herbicidal rate of 40% or more and less than 70%)"}, {"measurement": "effect on false cleavers (Q)", "setting": "[26]", "result": "4 (Herbicidal rate of 70% or more and less than 90%)"}, {"measurement": "effect on persian speedwell (R)", "setting": "[27]", "result": "4 (Herbicidal rate of 70% or more and less than 90%)"}]}]}
